ChEMBL document CHEMBL1137634, “A cysteine protease inhibitor cures Chagas' disease in an immunodeficient-mouse model of infection” (2007)
Calls of active or inactive are those of the source. The calls are words filed in the database; no cut-off is given here.

Assays:
Trypanosoma cruzi [1] = assay: Antitrypanosomal activity against Trypanosoma cruzi CA1/72 infected in recombinase Rag1 deficient mouse assessed as protection against skeletal muscle infection at 50 mg/kg, ip twice daily for 27 days measured at 16 to 24 weeks postinfection by histopathology; assay type: functional, organism-based; parameters: dose 50 mg/kg; conditions: Muscle tissue
Trypanosoma cruzi [2] = assay: Antitrypanosomal activity against Trypanosoma cruzi CA1/72 infected in immunocompetent C3HeB/FeJ mouse assessed as protection against lethal acute Chaga's disease at 50 mg/kg, ip twice daily for 27 days; assay type: functional; conditions: route intraperitoneal
Trypanosoma cruzi [3] = assay: Antitrypanosomal activity against Trypanosoma cruzi CA1/72 infected in recombinase Rag1 deficient mouse blood assessed as Trypanosoma-specific kinetoplast DNA in blood at 50 mg/kg, ip twice daily for 27 days measured after 80 to 160 days post-infection by PCR; assay type: functional, organism-based; parameters: dose 50 mg/kg
Trypanosoma cruzi [4] = assay: Antitrypanosomal activity against Trypanosoma cruzi CA1/72 infected in recombinase Rag1 deficient mouse assessed as Trypanosoma-specific kinetoplast DNA in spleen at 50 mg/kg, ip twice daily for 27 days by PCR; assay type: functional, organism-based; parameters: dose 50 mg/kg
Trypanosoma cruzi [5] = assay: Antitrypanosomal activity against Trypanosoma cruzi CA1/72 infected in recombinase Rag1 deficient mouse assessed as protection against heart infection at 50 mg/kg, ip twice daily for 27 days measured at 16 to 24 weeks postinfection by histopathology; assay type: functional, organism-based; parameters: dose 50 mg/kg
Trypanosoma cruzi [6] = assay: Antitrypanosomal activity against Trypanosoma cruzi CA1/72 infected in recombinase Rag1 deficient mouse assessed as protection against colon infection at 50 mg/kg, ip twice daily for 27 days measured at 16 to 24 weeks postinfection by histopathology; assay type: functional, organism-based; parameters: dose 50 mg/kg
Trypanosoma cruzi [7] = assay: Antitrypanosomal activity against Trypanosoma cruzi CA1/72 infected in recombinase Rag1 deficient mouse assessed as Trypanosoma-specific kinetoplast DNA in liver at 50 mg/kg, ip twice daily for 27 days by PCR; assay type: functional, organism-based; parameters: dose 50 mg/kg
Trypanosoma cruzi [8] = assay: Antitrypanosomal activity against Trypanosoma cruzi CA1/72 infected in recombinase Rag1 deficient mouse assessed as protection against spleen infection at 50 mg/kg, ip twice daily for 27 days measured at 16 to 24 weeks postinfection by histopathology; assay type: functional, organism-based; parameters: dose 50 mg/kg
Trypanosoma cruzi [9] = assay: Antitrypanosomal activity against Trypanosoma cruzi CA1/72 infected in recombinase Rag1 deficient mouse assessed as Trypanosoma-specific kinetoplast DNA in heart at 50 mg/kg, ip twice daily for 27 days by PCR; assay type: functional, organism-based; parameters: dose 50 mg/kg
Trypanosoma cruzi [10] = assay: Antitrypanosomal activity against Trypanosoma cruzi CA1/72 infected in recombinase Rag1 deficient mouse assessed as protection against lethal acute Chaga's disease at 50 mg/kg, ip twice daily for 27 days; assay type: functional; conditions: route intraperitoneal
Trypanosoma cruzi [11] = assay: Antitrypanosomal activity against Trypanosoma cruzi CA1/72 infected in recombinase Rag1 deficient mouse assessed as protection against liver infection at 50 mg/kg, ip twice daily for 27 days measured at 16 to 24 weeks postinfection by histopathology; assay type: functional, organism-based; parameters: dose 50 mg/kg
Trypanosoma cruzi [12] = assay: Antitrypanosomal activity against Trypanosoma cruzi CA1/72 infected in recombinase Rag1 deficient mouse assessed as Trypanosoma-specific kinetoplast DNA in blood at 50 mg/kg, ip twice daily for 27 days by PCR; assay type: functional, organism-based; parameters: dose 50 mg/kg
Trypanosoma cruzi [13] = assay: Antitrypanosomal activity against Trypanosoma cruzi CA1/72 infected in recombinase Rag1 deficient mouse assessed as survival from lethal infection at 50 mg/kg, ip twice daily for 27 days; assay type: functional; conditions: route intraperitoneal

Structure (SMILES): CN1CCN(C(=O)N[C@@H](Cc2ccccc2)C(=O)N[C@H](/C=C/S(=O)(=O)c2ccccc2)CCc2ccccc2)CC1 [K-777]
- Activity (Trypanosoma cruzi [1]): Active
- Activity (Trypanosoma cruzi [2]): 100%
- Activity (Trypanosoma cruzi [3]): Active
- Activity (Trypanosoma cruzi [4]): Active
- Activity (Trypanosoma cruzi [5]): Active
- Activity (Trypanosoma cruzi [6]): Active
- Activity (Trypanosoma cruzi [7]): Active
- Activity (Trypanosoma cruzi [8]): Active
- Activity (Trypanosoma cruzi [9]): Active
- Activity (Trypanosoma cruzi [10]): 60%
- Activity (Trypanosoma cruzi [11]): Active
- Activity (Trypanosoma cruzi [12]): inactive
- Survival (Trypanosoma cruzi [13]): 150 days
